Data on 1 cell line can be found in the supplement of paper PMC10307832.

Common to all, as to assay: relative viability (nuclei count vs DMSO), 5 days (fraction); higher = more cells survive
Compound in test [1]: CC1(C)CNc2cc(NC(=O)c3cccnc3NCc3ccncc3)ccc21 [Motesanib] + CC(=O)Nc1cccc(-n2c(=O)n(C3CC3)c(=O)c3c(Nc4ccc(I)cc4F)n(C)c(=O)c(C)c32)c1 [Trametinib] (partner 0.02 µM)
The method in brief: (§1)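 After 5 days of treatment, lung cancer cells in 1536-well plates were fixed and stained in a single step (final 0.05% Triton X-100, 1% formaldehyde, 1 ug/ml Hoechst) and their nuclei counted on 4× images. Treatment had been applied by pin tool the day after seeding as one drug alone or as a fixed anchor-drug dose with five library-drug doses (not always all listed) in √10 steps. Relative viability is the nuclei count of treated wells divided by that of vehicle wells, and values are medians of duplicate plates.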

Compound in test [2]: C[C@@]1(C(=O)Nc2ccc(F)nc2)CCCN1c1nc(Nc2cc(C3CC3)n[nH]2)c2cccn2n1 + CC(C)C[C@H](NC(=O)[C@H](Cc1ccccc1)NC(=O)c1cnccn1)B(O)O [Bortezomib] (partner 0.002 µM)
The method in brief:
as §1

Compound in test [3]: C[C@@]1(C(=O)Nc2ccc(F)nc2)CCCN1c1nc(Nc2cc(C3CC3)n[nH]2)c2cccn2n1 + CCNC(=O)c1noc(-c2cc(C(C)C)c(O)cc2O)c1-c1ccc(CN2CCOCC2)cc1 [Luminespib] (partner 0.01 µM)
The method, boiled down: as §1

Compound in test [4]: C[C@@]1(C(=O)Nc2ccc(F)nc2)CCCN1c1nc(Nc2cc(C3CC3)n[nH]2)c2cccn2n1 + Nc1nc2[nH]cc(CCc3ccc(C(=O)N[C@@H](CCC(=O)O)C(=O)O)cc3)c2c(=O)[nH]1 [Pemetrexed] (partner 0.2 µM)
The method in brief:
as §1

On to UMC-11, for which the relative viability in test [1] (first compound 0.01 µM) came to 0.659; in test [1] (first compound 0.03162 µM) it was 0.94; in test [1] (first compound 0.1 µM), 0.611; in test [1] (first compound 0.3162 µM) it was 0.744; in test [1] (first compound 1 µM), 0.762; in test [2] (first compound 0.04 µM) it was 0.79. Besides, the relative viability in test [2] (first compound 0.1265 µM) is 0.829; in test [2] (first compound 0.4 µM), 0.598; in test [2] (first compound 1.265 µM) it was 0.733; in test [3] (first compound 0.04 µM) it was 0.94; in test [3] (first compound 0.1265 µM), 1.01; in test [3] (first compound 0.4 µM), 0.968. Also, the relative viability in test [3] (first compound 1.265 µM) amounted to 0.726; in test [4] (first compound 0.04 µM), 0.773; in test [4] (first compound 0.1265 µM), 0.827; in test [4] (first compound 0.4 µM), 0.705; in test [4] (first compound 1.265 µM), 0.722.
